Measured values reported in PubChem BioAssay (NCI).
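Dose response: 5 concentrations. Exposure: 48 h. Format: 96-well plates. Endpoint: linear interpolation; highest concentration if not reached. TGI: total growth inhibition.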

Assays:
Assay in all cases: DTP human tumour cell line panel, 48 h
[1] = system: MALME-3M melanoma
[2] = system: OVCAR-4 ovarian
[3] = system: M14 melanoma
[4] = system: SK-MEL-5 melanoma
[5] = system: HL-60(TB) leukemia
[6] = system: CCRF-CEM leukemia
[7] = system: NCI-H522 lung
[8] = system: A549 NSCLC
[9] = system: SF-295 CNS
[10] = system: OVCAR-3 ovarian
[11] = system: U251 CNS
[12] = system: HOP-18 NSCLC
[13] = system: LXFL 529 NSCLC
[14] = system: KM12 colon
[15] = system: HT29 colon
[16] = system: DMS 273 small cell lung
[17] = system: HOP-92 NSCLC
[18] = system: OVCAR-8 ovarian
[19] = system: SNB-19 CNS
[20] = system: IGROV1 ovarian
[21] = system: TK-10 renal
[22] = system: NCI-H460 lung
[23] = system: LOX IMVI melanoma
[24] = system: HOP-62 NSCLC
[25] = system: UACC-257 melanoma
[26] = system: K-562 leukemia
[27] = system: RXF-631 renal
[28] = system: KM20L2 colon
[29] = system: HCC-2998 colon
[30] = system: SK-MEL-2 melanoma
[31] = system: RPMI-8226 leukemia
[32] = system: EKVX NSCLC
[33] = system: COLO 205 colon
[34] = system: SNB-75 CNS
[35] = system: NCI-H23 lung
[36] = system: MOLT-4 leukemia
[37] = system: SK-MEL-28 melanoma
[38] = system: SF-539 CNS
[39] = system: ACHN renal
[40] = system: CAKI-1 renal
[41] = system: UACC-62 melanoma
[42] = system: RXF 393 renal
[43] = system: DMS 114 small cell lung
[44] = system: SF-268 CNS
[45] = system: 786-0 renal
[46] = system: DLD-1 colon
[47] = system: UO-31 renal
[48] = system: HCT-15 colon
[49] = system: OVCAR-5 ovarian
[50] = system: M19-MEL melanoma
[51] = system: SN12C renal
[52] = system: SK-OV-3 ovarian
[53] = system: SW-620 colon

Measured: TGI

N#Cc1c(N)oc2cc3c(C#N)c(N)oc3cc12
> 100 µM: [1] | [2] | [3] | [4] | [5] | [6] | [7] | [8] | [9] | [10] | [11] | [12] | [13] | [14] | [15] | [16] | [17] | [18] | [19] | [20] | [21] | [22] | [23] | [24] | [25] | [26] | [27] | [28] | [29] | [30] | [31] | [32] | [33] | [34] | [35] | [36] | [37] | [38] | [39] | [40] | [41] | [42] | [43] | [44] | [45] | [46] | [47] | [48] | [49] | [50] | [51] | [52] | [53]
